Like-named read-outs stand apart in the source and are kept apart here.
Tests used:
[1] = biological target: T1, [^3 H]-Spiroperidol Binding (Homo sapiens, UniProt P14416); assay: Inhibition of [^3 H]-spiroperidol binding in a receptor assay
T1 construct: receptor assay described by D. Grigoriadis and P. Seeman, Journal of Neurochemistry, Volume 44, pages 1925-1935 (1985); from tissue
Text: (§1) The above test methods are incorporated herein by reference.

[2] = test system: Locomotor Activity in Mice; assay: Inhibition of locomotor activity in mice; type: in vivo; conditions: for ED50: Mus musculus, ip; for Inhibition of Locomotor Activity in Mice ED50: IP
Text: as §1

[3] = test system: Brain Striatal Dopamine Synthesis; assay: Effects on brain striatal dopamine synthesis in rats; type: in vivo; conditions: Rattus norvegicus
Text: as §1

[4] = read-out: Inhibition of [^3 H]-Spiroperidol Binding IC50
[5] = Inhibition of [^3 H]-Spiroperidol Binding IC50

T1 sequence (P14416 whole entry): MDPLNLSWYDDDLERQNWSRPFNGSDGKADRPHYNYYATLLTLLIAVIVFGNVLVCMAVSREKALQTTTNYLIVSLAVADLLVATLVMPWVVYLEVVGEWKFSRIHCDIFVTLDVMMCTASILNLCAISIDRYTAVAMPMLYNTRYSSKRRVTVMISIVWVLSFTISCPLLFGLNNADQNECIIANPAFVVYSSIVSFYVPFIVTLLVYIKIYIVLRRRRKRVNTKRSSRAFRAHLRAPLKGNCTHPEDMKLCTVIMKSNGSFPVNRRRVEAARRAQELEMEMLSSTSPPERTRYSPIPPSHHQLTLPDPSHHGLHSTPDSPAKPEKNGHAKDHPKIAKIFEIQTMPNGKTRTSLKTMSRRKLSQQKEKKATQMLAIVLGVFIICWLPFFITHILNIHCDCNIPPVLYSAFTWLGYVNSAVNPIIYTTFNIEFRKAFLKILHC

Row | Structure (SMILES) | IC50 [1, 4] | ED50 [2] | also measured
1 | COc1ccccc1C(=O)N[C@H]1CC[C@H](N2CCN(c3ccccn3)CC2)CC1 [Example 41, trans N-[4-[4-(2-Pyridinyl)-1-piperazinyl]cyclohexyl]-2-methoxybenzamide] | 530 nM | 1.9 mg/kg | 
2 | O=C(N[C@H]1CC[C@H](CCN2CC=C(c3ccccc3)CC2)CC1)c1ccccc1 [Example 72, trans N-[4-[2-(3,6-Dihydro-4-phenyl-1(2H)-pyridinyl)ethyl]cyclohexyl]benzamide] |  | 0.27 mg/kg | IC50 [1, 5]: 100 nM; inhibition in vivo at 10 mg/kg ([3]; IP): 74%
3 | O=C(N[C@H]1CC[C@@H](CCN2CCN(c3ccccn3)CC2)CC1)c1ccc(Cl)cc1 [Example 56, cis 4-Chloro-N-[4-[2-[4-(2-pyridinyl)-1-piperazinyl]ethyl]cyclohexyl]benzamide] | 1620 nM | 6.3 mg/kg | 
4 | Cc1ccc(C(=O)N[C@H]2CC[C@H](CCN3CCN(c4ccccn4)CC3)CC2)cc1 [Example 54, trans 4-Methyl-N-[4-[2-[4-(2-pyridinyl)-1-piperazinyl]ethyl]cyclohexyl]benzamide] | 290 nM | 0.11 mg/kg | inhibition in vivo at 10 mg/kg ([3]; ip): 0%
5 | OC1(c2ccccc2)CCC(CCN2CCN(c3ccccn3)CC2)CC1 (centres unmarked) [Example 5, 1-Phenyl-4-[2-[4-(2-pyridinyl)-1-piperazinyl]ethyl]cyclohexanol] | 537 nM | 1.8 mg/kg | inhibition in vivo at 10 mg/kg ([3]; ip): 35%
6 | Cc1ccc(C(=O)N[C@H]2CC[C@@H](CCN3CCN(c4ccccn4)CC3)CC2)cc1 [Example 55, cis 4-Methyl-N-[4-[2-[4-(2-pyridinyl)-1-piperazinyl]ethyl]cyclohexyl]benzamide] | 830 nM |  | 
7 | CN(C(=O)c1ccccc1)[C@H]1CC[C@H](N2CCN(c3ccccn3)CC2)CC1 [Example 42, trans N-Methyl-N-[4-[4-(2-pyridinyl)-1-piperazinyl]cyclohexyl]benzamide] | 4840 nM | 2.4 mg/kg | inhibition in vivo at 10 mg/kg ([3]; ip): 15%
8 | OC1(c2ccccc2)CCC(N2CCN(c3ccccn3)CC2)CC1 (centres unmarked) [Example 27, 1-Phenyl-4-[4-(2-pyridinyl)-1-piperazinyl]cyclohexanol] | 1660 nM | 0.83 mg/kg | 
9 | OC1(c2cccnc2)CCC(N2CC=C(c3ccccc3)CC2)CC1 (stereo not drawn) [Example 29, trans-4-(3,6-Dihydro-4-phenyl-1(2H)-pyridinyl)-1-(3-pyridinyl)cyclohexanol] |  |  | Inhibition of Locomotor Activity in Mice ED50 [2]: 25.6 mg/kg
10 | O=C(N[C@H]1CC[C@H](N2CCN(c3ccccn3)CC2)CC1)c1cccs1 [Example 44, trans N-[4-[4-(2-Pyridinyl)-1-piperazinyl]cyclohexyl]-2-thiophenecarboxamide] | 2520 nM | 0.29 mg/kg | 
11 | O=C(N[C@H]1CC[C@H](CN2CCN(c3ccccn3)CC2)CC1)c1ccccc1 [Example 60, trans N-[4-[[4-(2-Pyridinyl)-1-piperazinyl]methyl]cyclohexyl]benzamide] |  | 1 mg/kg | inhibition in vivo at 10 mg/kg ([3]; ip): 36%
12 | O=C(N[C@H]1CC[C@H](N2CC=C(c3ccccc3)CC2)CC1)c1ccccc1 [Example 46, trans N-[4-(3,6-Dihydro-4-phenyl-1(2H)-pyridinyl)cyclohexyl]benzamide] | 360 nM | 0.16 mg/kg | inhibition in vivo at 10 mg/kg ([3]; IP): 95%
13 | OC1(c2cccs2)CCC(N2CCN(c3ccccn3)CC2)CC1 (centres unmarked) [Example 24, 4-[4-(2-Pyridinyl)-1-piperazinyl]-1-(2-thienyl)cyclohexanol] |  | > 30 mg/kg | 
14 | OC1(c2ccccn2)CCC(N2CCN(c3ncccn3)CC2)CC1 (stereo not drawn) [Example 18, trans-1-(2-Pyridinyl)-4-[4-(2-pyrimidinyl)-1-piperazinyl]cyclohexanol] |  |  | Inhibition of Locomotor Activity in Mice ED50 [2]: > 30 mg/kg
15 | O=C(N[C@H]1CC[C@@H](CCN2CC=C(c3ccccc3)CC2)CC1)c1cccs1 [Example 70, cis N-[4-[2-(3,6-Dihydro-4-phenyl-1(2H)-pyridinyl)ethyl]cyclohexyl]-2-thiophenecarboxamide] | 280 nM |  | 
16 | O=C(N[C@H]1CC[C@H](N2CCN(c3ccccn3)CC2)CC1)c1ccccc1 [Example 40, trans N-[4-[4-(2-Pyridinyl)-1-piperazinyl]cyclohexyl]benzamide] | 2800 nM | 0.36 mg/kg | inhibition in vivo at 10 mg/kg ([3]; ip): 65%
17 | OC1(c2cccs2)CCC(CN2CCN(c3ccccn3)CC2)CC1 (stereo not drawn) [Example 16, trans-4-[[4-(2-Pyridinyl)-1-piperazinyl]methyl]-1-(2-thienyl)cyclohexanol] |  | 4.3 mg/kg | 
18 | OC1(c2cccnc2)CCC(CCN2CCN(c3ccccn3)CC2)CC1 (centres unmarked) [Example 10, 1-(3-Pyridinyl)-4-[2-[4-(2-pyridinyl)-1-piperazinyl]ethyl]cyclohexanol] | 847 nM | 0.37 mg/kg | 
19 | OC1(c2ccc(Cl)cc2)CCC(N2CCN(c3ccccn3)CC2)CC1 (stereo not drawn) [Example 1, trans-1-(4-Chlorophenyl)-4-[4-(2-pyridinyl)-1-piperazinyl]cyclohexanol] | 333 nM |  | Inhibition of Locomotor Activity in Mice ED50 [2]: 2.3 mg/kg
20 | OC1(c2cccnc2)CCC(N2CC=C(c3ccccc3)CC2)CC1 (stereo not drawn) [Example 30, cis-4-(3,6-Dihydro-4-phenyl-1(2H)-pyridinyl)-1-(3-pyridinyl)cyclohexanol] | 1250 nM |  | Inhibition of Locomotor Activity in Mice ED50 [2]: 1.3 mg/kg

Row | Structure (SMILES) | IC50 [1, 4] | ED50 [2] | also measured
21 | O=C(N[C@H]1CC[C@H](CCN2CCN(c3ccccn3)CC2)CC1)c1ccc(Cl)cc1 [Example 57, trans 4-Chloro-N-[4-[2-[4-(2-pyridinyl)-1-piperazinyl]ethyl]cyclohexyl]benzamide] | 620 nM | 0.51 mg/kg | 
22 | OC1(c2ccccn2)CCC(N2CCN(c3ccccn3)CC2)CC1 (stereo not drawn) [Example 21, cis-1-(2-Pyridinyl)-4-[4-(2-pyridinyl)-1-piperazinyl]cyclohexanol] | 2780 nM |  | Inhibition of Locomotor Activity in Mice ED50 [2]: 2.3 mg/kg
23 | COc1ccc(C2(O)CCC(N3CCN(c4ccccn4)CC3)CC2)cc1 (centres unmarked) [Example 26, 1-(4-Methoxyphenyl)-4-[4-(2-pyridinyl)-1-piperazinyl]cyclohexanol] | 670 nM | 0.3 mg/kg | 
24 | OC1(c2cccs2)CCC(CCN2CC=C(c3ccccc3)CC2)CC1 (stereo not drawn) [Example 13, cis-4-[2-(3,6-Dihydro-4-phenyl-1(2H)-pyridinyl)ethyl]-1-(2-thienyl)cyclohexanol] |  | 2 mg/kg | IC50 [1, 5]: 51 nM
25 | OC1(c2ccccn2)CCC(N2CCN(c3ncccn3)CC2)CC1 (stereo not drawn) [Example 19, cis-1-(2-Pyridinyl)-4-[4-(2-pyrimidinyl)-1-piperazinyl]cyclohexanol] |  |  | Inhibition of Locomotor Activity in Mice ED50 [2]: 13.0 mg/kg
26 | OC1(c2ccccn2)CCC(CCN2CCN(c3ccccn3)CC2)CC1 (centres unmarked) [Example 6, 1-(2-Pyridinyl)-4-[2-[4-(2-pyridinyl)-1-piperazinyl]ethyl]cyclohexanol] | 1050 nM | 0.34 mg/kg | 
27 | OC1(c2ccccn2)CCC(N2CC=C(c3ccccc3)CC2)CC1 (centres unmarked) [Example 28, 4-(3,6-Dihydro-4-phenyl-1(2H)-pyridinyl)-1-(2-pyridinyl)cyclohexanol] |  | 1.8 mg/kg | 
28 | O=C(N[C@H]1CC[C@@H](CCN2CC=C(c3ccccc3)CC2)CC1)c1ccccc1 [Example 69, cis N-[4-[2-(3,6-Dihydro-4-phenyl-1(2H)-pyridinyl)ethyl]cyclohexyl]benzamide] |  | 2.1 mg/kg | 
29 | OC1(c2cccs2)CCC(CN2CCN(c3ccccn3)CC2)CC1 (stereo not drawn) [Example 17, cis-4-[[4-(2-Pyridinyl)-1-piperazinyl]methyl]-1-(2-thienyl)cyclohexanol] | 3900 nM |  | Inhibition of Locomotor Activity in Mice ED50 [2]: 5.2 mg/kg
30 | O=C(N[C@H]1CC[C@H](N2CC=C(c3ccccc3)CC2)CC1)C1CCCCC1 [Example 50, trans N-[4-(3,6-Dihydro-4-phenyl-1(2H)-pyridinyl)cyclohexyl]cyclohexanecarboxamide] | 1600 nM | 1.1 mg/kg | 
31 | OC1(c2ccc(Cl)cc2)CCC(N2CCN(c3ccccn3)CC2)CC1 (stereo not drawn) [Example 1a, cis-1-(4-Chlorophenyl)-4-[4-(2-pyridinyl)-1-piperazinyl]cyclohexanol] | 816 nM |  | Inhibition of Locomotor Activity in Mice ED50 [2]: 0.86 mg/kg
32 | CC(=O)N[C@H]1CC[C@H](CCN2CCN(c3ccccn3)CC2)CC1 [Example 58, trans N-[4-[2-[4-(2-Pyridinyl)-1-piperazinyl]ethyl]cyclohexyl]acetamide] |  | 0.03 mg/kg | inhibition in vivo at 10 mg/kg ([3]; ip): 87%
33 | OC1(c2ccsc2)CCC(N2CCN(c3ccccn3)CC2)CC1 (centres unmarked) [Example 25, 4-[4-(2-Pyridinyl)-1-piperazinyl]-1-(3-thienyl)cyclohexanol] | 2700 nM | 2.4 mg/kg | 
34 | O=C(N[C@H]1CC[C@H](N2CCN(c3ccccn3)CC2)CC1)c1ccc(Cl)cc1 [Example 43, trans 4-Chloro-N-[4-[4-(2-pyridinyl)-1-piperazinyl]cyclohexyl]benzamide] | 7790 nM | 0.78 mg/kg | 
35 | OC1(c2ccccn2)CCC(N2CCN(c3ccccn3)CC2)CC1 (stereo not drawn) [Example 20, trans-1-(2-Pyridinyl)-4-[4-(2-pyridinyl)-1-piperazinyl]cyclohexanol] |  |  | Inhibition of Locomotor Activity in Mice ED50 [2]: > 30 mg/kg
36 | OC1(c2cccnc2)CCC(N2CCN(c3ccccn3)CC2)CC1 (stereo not drawn) [Example 22, trans-1-(3-Pyridinyl)-4-[4-(2-pyridinyl)-1-piperazinyl]cyclohexanol] | 12500 nM |  | Inhibition of Locomotor Activity in Mice ED50 [2]: 30 mg/kg
37 | O=C(N[C@H]1CC[C@H](CCN2CCN(c3ccccn3)CC2)CC1)c1ccc(Cl)c(Cl)c1 [Example 59, trans 3,4-Dichloro-N-[4-[2-[4-(2-pyridinyl)-1-piperazinyl]ethyl]cyclohexyl]benzamide] |  | 14.4 mg/kg | inhibition in vivo at 10 mg/kg ([3]; ip): 7%
38 | OC1(c2cccnc2)CCC(N2CCN(c3ccccn3)CC2)CC1 (stereo not drawn) [Example 23, cis-1-(3-Pyridinyl)-4-[4-(2-pyridinyl)-1-piperazinyl]cyclohexanol] | 1160 nM |  | Inhibition of Locomotor Activity in Mice ED50 [2]: 1.6 mg/kg
39 | OC1(c2nccs2)CCC(CCN2CCN(c3ccccn3)CC2)CC1 (centres unmarked) [Example 9, 4-[2-[4-(2-Pyridinyl)-1-piperazinyl]ethyl]-1-(2-thiazolyl)cyclohexanol] | 1550 nM | 1 mg/kg | 
